Laboratory results from article PMC6112376, “Comprehensive Analyses and Prioritization of Tox21 10K Chemicals Affecting Mitochondrial Function by in-Depth Mechanistic Studies” (Environmental Health Perspectives, 2018).

Experiments:
hNSC = assay: MMP assay in human neural stem cells (hNSC); type: cell-based; conditions: Homo sapiens, Neural stem cell, 1 h, read-out: hNSC IC50 (MMP)
HepG2 cells [1] = assay: ROS-Glo hydrogen peroxide (ROS) assay; type: cell-based, human; conditions: Homo sapiens, HepG2, 2 h, read-out: ROS (HepG2) EC50
HepG2 cells [2] = assay: Intracellular ATP content (cell viability) assay; type: cell-based, human; conditions: Homo sapiens, HepG2, 40 h
[3] = tested on: p53 (p53-bla HCT-116 cells); assay: p53 β-lactamase reporter gene assay; type: cell-based, human; conditions: Homo sapiens; 16 h incubation; mean±SD of three experiments
[4] = tested on: Nrf2/ARE (ARE-bla HepG2 cells); assay: ARE β-lactamase reporter gene assay; type: cell-based, human; conditions: Homo sapiens, HepG2; 16 h incubation; mean±SD of three experiments; read-out: ARE (HepG2) EC50
[5] = tested on: isolated rat liver mitochondria; assay: Oxygen consumption, Clark-type oxygen electrode; type: biochemical
[6] = tested on: mitochondrial respiratory chain complex I; type: biochemical, rat
[7] = target: T1, mitochondrial respiratory chain complex II (Rattus norvegicus, UniProt P21913+Q641Z9+Q6PCT8+Q920L2); assay: Respiratory chain complex II activity; type: biochemical; conditions: tested up to 100μM
T1 construct: Submitochondrial particles were prepared by subjecting the intact rat mitochondria, isolated as described above, to three successive freeze–thaw cycles; from tissue; host or cells: rat liver mitochondria (submitochondrial particles)
T1 sequence (Q920L2 35-656): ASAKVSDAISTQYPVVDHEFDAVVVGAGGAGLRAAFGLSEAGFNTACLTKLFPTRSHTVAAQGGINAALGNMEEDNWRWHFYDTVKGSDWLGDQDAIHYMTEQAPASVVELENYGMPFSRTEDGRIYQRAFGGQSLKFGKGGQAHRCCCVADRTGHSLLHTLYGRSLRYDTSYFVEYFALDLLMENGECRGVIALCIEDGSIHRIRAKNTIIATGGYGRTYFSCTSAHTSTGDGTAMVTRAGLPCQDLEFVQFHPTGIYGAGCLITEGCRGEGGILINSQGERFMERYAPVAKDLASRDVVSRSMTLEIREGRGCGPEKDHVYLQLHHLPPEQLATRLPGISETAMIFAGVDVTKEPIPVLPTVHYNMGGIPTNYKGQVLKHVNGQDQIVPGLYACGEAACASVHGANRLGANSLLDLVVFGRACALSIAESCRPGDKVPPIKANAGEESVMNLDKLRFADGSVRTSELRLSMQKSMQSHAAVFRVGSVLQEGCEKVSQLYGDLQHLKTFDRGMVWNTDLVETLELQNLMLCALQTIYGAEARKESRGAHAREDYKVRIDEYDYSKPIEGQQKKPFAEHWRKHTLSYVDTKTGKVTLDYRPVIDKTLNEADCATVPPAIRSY
T1 sequence (P21913 31-282): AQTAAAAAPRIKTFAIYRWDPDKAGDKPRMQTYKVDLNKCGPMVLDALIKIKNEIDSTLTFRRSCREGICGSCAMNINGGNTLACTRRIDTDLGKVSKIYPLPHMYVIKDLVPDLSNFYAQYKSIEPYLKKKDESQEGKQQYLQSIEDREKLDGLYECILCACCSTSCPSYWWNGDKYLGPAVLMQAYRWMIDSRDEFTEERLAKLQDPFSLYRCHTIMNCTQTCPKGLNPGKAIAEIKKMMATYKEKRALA
T1 sequence (Q641Z9 1-169): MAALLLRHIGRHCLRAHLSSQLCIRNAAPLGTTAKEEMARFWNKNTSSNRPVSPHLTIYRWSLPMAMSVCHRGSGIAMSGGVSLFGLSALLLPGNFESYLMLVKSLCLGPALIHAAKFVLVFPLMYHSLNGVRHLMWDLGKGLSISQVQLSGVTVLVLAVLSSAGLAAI
T1 sequence (Q6PCT8 57-159): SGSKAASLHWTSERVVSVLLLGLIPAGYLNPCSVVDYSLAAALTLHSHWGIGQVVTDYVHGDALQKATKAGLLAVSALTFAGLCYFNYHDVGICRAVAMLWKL

[8] = tested on: mitochondrial respiratory chain complex III; type: biochemical, rat
[9] = tested on: mitochondrial respiratory chain complex IV; type: biochemical, rat
[10] = tested on: mitochondrial respiratory chain complex V; type: biochemical, rat
[11] = tested on: HeLa cells expressing YFP-Parkin; assay: Parkin translocation assay; type: cell-based, human
rat primary hepatocytes [12] = tested on: rat primary hepatocytes
HepG2 cells [13] = assay: cells; conditions: Homo sapiens, HepG2, 1 h
rat primary hepatocytes [14] = assay: MMP assay in rat primary hepatocytes; conditions: Rattus norvegicus, Hepatocyte, 1 h, read-out: Rat hepatocytes IC50 (MMP)

**Q.** For `CCCCCC[C@H]1C(=O)O[C@H](C)[C@H](NC(=O)c2cccc(NC=O)c2O)C(=O)O[C@@H](C)[C@@H]1OC(=O)CC(C)C` [Antimycin A, reference compound], which IC50 (hNSC) is on record?
**A.** 2910 nM

**Q.** And the EC50 (HepG2 cells [1])?
**A.** 6830 nM

**Q.** And the IC50 (HepG2 cells [2]; read-out: ATP (HepG2, galactose) IC50)?
**A.** 50 nM

**Q.** And the IC50 (HepG2 cells [2]; read-out: ATP (HepG2, glucose) IC50)?
**A.** 20 nM

**Q.** And the EC50 [3]?
**A.** 310 ± 40 nM

**Q.** What about the EC50 [4] of the same compound?
**A.** 470 ± 420 nM

**Q.** What about the “Potential Mechanism” value [5] of the same compound?
**A.** Inhibitor

**Q.** What about the “effect on mitochondrial respiration (in words)” value [5] of the same compound?
**A.** significantly inhibited both glutamate/malate-driven respiration and succinate-driven respiration

**Q.** And the “I-ADP, % of control (O2 consumption rate)” value ([5]; 0.00128 µM)?
**A.** 101 (37.5) % of control

**Q.** And the “I-sub, % of control (O2 consumption rate)” value ([5]; 0.00128 µM)?
**A.** 104 (11.2) % of control

**Q.** What about the “II-ADP, % of control (O2 consumption rate)” value (“II-ADP, % of control” for short) ([5]; 0.00128 µM) of the same compound?
**A.** 102 (64.0) % of control

**Q.** And the “II-sub, % of control (O2 consumption rate)” value (from here on “II-sub, % of control”) ([5]; 0.00128 µM)?
**A.** 105 (19.5) % of control

**Q.** And the “I-ADP, % of control (O2 consumption rate)” value ([5]; 0.0064 µM)?
**A.** 90 (33.5) % of control

**Q.** What about the “I-sub, % of control (O2 consumption rate)” value ([5]; 0.0064 µM) of the same compound?
**A.** 93 (10.0) % of control

**Q.** And the “II-ADP, % of control” value ([5]; 0.0064 µM)?
**A.** 83 (52.2) % of control

**Q.** And the “II-sub, % of control” value ([5]; 0.0064 µM)?
**A.** 92 (17.1) % of control

**Q.** What about the “I-ADP, % of control (O2 consumption rate)” value ([5]; 0.032 µM) of the same compound?
**A.** 59 (22.1) % of control

**Q.** And the “I-sub, % of control (O2 consumption rate)” value ([5]; 0.032 µM)?
**A.** 86 (9.3) % of control

**Q.** What about the “II-ADP, % of control” value ([5]; 0.032 µM) of the same compound?
**A.** 39 (24.5) % of control

**Q.** What about the “II-sub, % of control” value ([5]; 0.032 µM) of the same compound?
**A.** 67 (12.4) % of control

**Q.** And the “I-ADP, % of control (O2 consumption rate)” value ([5]; 0.16 µM)?
**A.** 17 (6.4) % of control

**Q.** And the “I-sub, % of control (O2 consumption rate)” value ([5]; 0.16 µM)?
**A.** 53 (5.7) % of control

**Q.** And the “II-ADP, % of control” value ([5]; 0.16 µM)?
**A.** 10 (6.4) % of control

**Q.** And the “II-sub, % of control” value ([5]; 0.16 µM)?
**A.** 36 (6.7) % of control

**Q.** And the “I-ADP, % of control (O2 consumption rate)” value ([5]; 0.8 µM)?
**A.** 16 (6.1) % of control

**Q.** What about the “I-sub, % of control (O2 consumption rate)” value ([5]; 0.8 µM) of the same compound?
**A.** 63 (6.8) % of control

**Q.** And the “II-ADP, % of control” value ([5]; 0.8 µM)?
**A.** 10 (6.4) % of control

**Q.** What about the “II-sub, % of control” value ([5]; 0.8 µM) of the same compound?
**A.** 30 (5.6) % of control

**Q.** What about the “I-ADP, % of control (O2 consumption rate)” value ([5]; 4 µM) of the same compound?
**A.** 13 (4.8) % of control

**Q.** What about the “I-sub, % of control (O2 consumption rate)” value ([5]; 4 µM) of the same compound?
**A.** 51 (5.5) % of control

**Q.** What about the “II-ADP, % of control” value ([5]; 4 µM) of the same compound?
**A.** 12 (7.5) % of control

**Q.** What about the “II-sub, % of control” value ([5]; 4 µM) of the same compound?
**A.** 31 (5.7) % of control

**Q.** What about the “I-ADP, % of control (O2 consumption rate)” value ([5]; 20 µM) of the same compound?
**A.** 15 (5.7) % of control

**Q.** And the “I-sub, % of control (O2 consumption rate)” value ([5]; 20 µM)?
**A.** 54 (5.8) % of control

**Q.** What about the “II-ADP, % of control” value ([5]; 20 µM) of the same compound?
**A.** 9 (5.8) % of control

**Q.** And the “II-sub, % of control” value ([5]; 20 µM)?
**A.** 32 (6.0) % of control

**Q.** And the “I-ADP, % of control (O2 consumption rate)” value ([5]; 100 µM)?
**A.** 9 (4.8) % of control

**Q.** And the “I-sub, % of control (O2 consumption rate)” value ([5]; 100 µM)?
**A.** 26 (5.6) % of control

**Q.** What about the “II-ADP, % of control” value ([5]; 100 µM) of the same compound?
**A.** 7 (4.0) % of control

**Q.** And the “II-sub, % of control” value ([5]; 100 µM)?
**A.** 13 (4.6) % of control

**Q.** What about the “Complex I % inhibition (activity call)” value [6] of the same compound?
**A.** Inactive

**Q.** What about the “Complex II % inhibition (activity call)” value [7] of the same compound?
**A.** Inactive

**Q.** And the “inhibitory effect on Complex III at (concentration)” value [8]?
**A.** 0.032 µM

**Q.** And the “Complex III % inhibition” value ([8]; at 0.032μM)?
**A.** 71.1±2.91 at 0.032μM %

**Q.** What about the “Complex IV % inhibition (activity call)” value [9] of the same compound?
**A.** Inactive

**Q.** What about the “Complex V % inhibition (activity call)” value [10] of the same compound?
**A.** Inactive

**Q.** What about the Parkin recruitment [11] of the same compound?
**A.** Active

**Q.** What about the “Parkin translocation into mitochondria (in words)” value ([11]; 3 h) of the same compound?
**A.** significantly increased Parkin translocation into mitochondria

**Q.** What about the “Rat hepatocytes (efficacy) (MMP)” value (rat primary hepatocytes [12]) of the same compound?
**A.** 2.65±1.08 ( −94.9±3.37 ) %

**Q.** What about the IC50 (HepG2 cells [13]; read-out: HepG2 IC50 Galactose (MMP)) of the same compound?
**A.** 250 nM

**Q.** What about the IC50 (HepG2 cells [13]; read-out: HepG2 IC50 Glucose (MMP)) of the same compound?
**A.** 2790 nM

**Q.** And the IC50 (rat primary hepatocytes [14])?
**A.** 2650 nM
